Assays:
E. coli = test: AATCC Test Method 100 quantitative antibacterial test (bacterial reduction); assay type: cell-based, Escherichia coli (ATCC 2666); conditions: contact time 60 min
Excerpt: (§1) AATCC Test Method 100 was adopted in this study. According to this test method, four pieces of staked circular fabric swatches 4.8±0.1 (about one grams) were inoculated with 1.0±0.1 milliliter of inoculum in a 250 milliliter jar. The inoculum was a nutrient broth culture containing over 1.0×10^6 clone forming units (CFU) of organisms. After the swatches were inoculated, they were neutralized by 100 milliliter of a 0.02% sodium thiosulfate solution in the jar. The contact time was the time between inoculation and neutralization. The jar was vigorously shaken and the neutralized solution was diluted in serial. The dilutions, usually 100, 101, and 102, were plated on nutrient agar and incubated for 18-24 hours at 37° C. The number of bacteria recovered from the inoculated finished fabrics was counted and compared with that from untreated fabrics. Six log reduction means the total inactivation of bacteria, and one log reduction means that finished fabrics reduced bacteria counts from 106 CFU to 105 CFU.
(§2) Finished fabrics prepared from solutions containing 1%-6% of monomethylol-5,5-dimethylhydantoin following the protocol set forth in Example 1 with pickup rates below 1% have been tested.
(§3) Fabrics finished in accordance with the protocol set forth in Example II with Anti-2, i.e., 1,3-dimethylol-5,5-dimethylhydantoin, were also tested with AATCC test method 100, which was briefly described in Example IV. In the tests, a diluted CLOROX® solution containing 0.01 % active chlorine was used to chlorinate the finished fabrics.

S. aureus = test: as above; assay type: cell-based, Staphylococcu aureus (ATCC 5368); conditions: contact time 60 min
Excerpt: as §1, §2, §3

[1] = Anti-2 2%, #400, last column pair
[2] = Anti-2 2%, #7409, last column pair
[3] = Anti-2 6%, #400, last column pair
[4] = Anti-2 6%, #7409, last column pair
[5] = Anti-2 10%, #400, last column pair
[6] = Anti-2 10%, #7409, last column pair

CC1(C)C(=O)N(CO)C(=O)N1CO [Anti-2, 1,3-dimethylol-5,5-dimethylhydantoin]
6 log: Durable Antibacterial Properties After fifteen washes E. coli (E. coli; Anti-2 2%, #400) | Durable Antibacterial Properties After five washes E. coli (E. coli; Anti-2 2%, #400) | Durable Antibacterial Properties After ten washes E. coli (E. coli; Anti-2 2%, #400) | Durable Antibacterial Properties After twenty washes E. coli (E. coli; Anti-2 2%, #400) | Durable Antibacterial Properties After twenty washes E. coli (E. coli; [1]) | Durable Antibacterial Properties After fifteen washes E. coli (E. coli; Anti-2 2%, #7409) | Durable Antibacterial Properties After five washes E. coli (E. coli; Anti-2 2%, #7409) | Durable Antibacterial Properties After ten washes E. coli (E. coli; Anti-2 2%, #7409) | Durable Antibacterial Properties After twenty washes E. coli (E. coli; Anti-2 2%, #7409) | Durable Antibacterial Properties After twenty washes E. coli (E. coli; [2]) | Durable Antibacterial Properties After fifteen washes E. coli (E. coli; Anti-2 6%, #400) | Durable Antibacterial Properties After five washes E. coli (E. coli; Anti-2 6%, #400) | Durable Antibacterial Properties After ten washes E. coli (E. coli; Anti-2 6%, #400) | Durable Antibacterial Properties After twenty washes E. coli (E. coli; Anti-2 6%, #400) | Durable Antibacterial Properties After twenty washes E. coli (E. coli; [3]) | Durable Antibacterial Properties After fifteen washes E. coli (E. coli; Anti-2 6%, #7409) | Durable Antibacterial Properties After five washes E. coli (E. coli; Anti-2 6%, #7409) | Durable Antibacterial Properties After ten washes E. coli (E. coli; Anti-2 6%, #7409) | Durable Antibacterial Properties After twenty washes E. coli (E. coli; Anti-2 6%, #7409) | Durable Antibacterial Properties After twenty washes E. coli (E. coli; [4]) | Durable Antibacterial Properties After fifteen washes E. coli (E. coli; Anti-2 10%, #400) | Durable Antibacterial Properties After five washes E. coli (E. coli; Anti-2 10%, #400) | Durable Antibacterial Properties After ten washes E. coli (E. coli; Anti-2 10%, #400) | Durable Antibacterial Properties After twenty washes E. coli (E. coli; Anti-2 10%, #400) | Durable Antibacterial Properties After twenty washes E. coli (E. coli; [5]) | Durable Antibacterial Properties After fifteen washes E. coli (E. coli; Anti-2 10%, #7409) | Durable Antibacterial Properties After five washes E. coli (E. coli; Anti-2 10%, #7409) | Durable Antibacterial Properties After ten washes E. coli (E. coli; Anti-2 10%, #7409) | Durable Antibacterial Properties After twenty washes E. coli (E. coli; Anti-2 10%, #7409) | Durable Antibacterial Properties After twenty washes E. coli (E. coli; [6]) | Durable Antibacterial Properties After fifteen washes S. aur. (S. aureus; Anti-2 2%, #400) | Durable Antibacterial Properties After five washes S. aur. (S. aureus; Anti-2 2%, #400) | Durable Antibacterial Properties After ten washes S. aur. (S. aureus; Anti-2 2%, #400) | Durable Antibacterial Properties After twenty washes S. aur. (S. aureus; Anti-2 2%, #400) | Durable Antibacterial Properties After twenty washes S. aur. (S. aureus; [1]) | Durable Antibacterial Properties After fifteen washes S. aur. (S. aureus; Anti-2 2%, #7409) | Durable Antibacterial Properties After five washes S. aur. (S. aureus; Anti-2 2%, #7409) | Durable Antibacterial Properties After ten washes S. aur. (S. aureus; Anti-2 2%, #7409) | Durable Antibacterial Properties After twenty washes S. aur. (S. aureus; Anti-2 2%, #7409) | Durable Antibacterial Properties After twenty washes S. aur. (S. aureus; [2]) | Durable Antibacterial Properties After fifteen washes S. aur. (S. aureus; Anti-2 6%, #400) | Durable Antibacterial Properties After five washes S. aur. (S. aureus; Anti-2 6%, #400) | Durable Antibacterial Properties After ten washes S. aur. (S. aureus; Anti-2 6%, #400) | Durable Antibacterial Properties After twenty washes S. aur. (S. aureus; Anti-2 6%, #400) | Durable Antibacterial Properties After twenty washes S. aur. (S. aureus; [3]) | Durable Antibacterial Properties After fifteen washes S. aur. (S. aureus; Anti-2 6%, #7409) | Durable Antibacterial Properties After five washes S. aur. (S. aureus; Anti-2 6%, #7409) | Durable Antibacterial Properties After ten washes S. aur. (S. aureus; Anti-2 6%, #7409) | Durable Antibacterial Properties After twenty washes S. aur. (S. aureus; Anti-2 6%, #7409) | Durable Antibacterial Properties After twenty washes S. aur. (S. aureus; [4]) | Durable Antibacterial Properties After fifteen washes S. aur. (S. aureus; Anti-2 10%, #400) | Durable Antibacterial Properties After five washes S. aur. (S. aureus; Anti-2 10%, #400) | Durable Antibacterial Properties After ten washes S. aur. (S. aureus; Anti-2 10%, #400) | Durable Antibacterial Properties After twenty washes S. aur. (S. aureus; Anti-2 10%, #400) | Durable Antibacterial Properties After twenty washes S. aur. (S. aureus; [5]) | Durable Antibacterial Properties After fifteen washes S. aur. (S. aureus; Anti-2 10%, #7409) | Durable Antibacterial Properties After five washes S. aur. (S. aureus; Anti-2 10%, #7409) | Durable Antibacterial Properties After ten washes S. aur. (S. aureus; Anti-2 10%, #7409) | Durable Antibacterial Properties After twenty washes S. aur. (S. aureus; Anti-2 10%, #7409) | Durable Antibacterial Properties After twenty washes S. aur. (S. aureus; [6])

— patent US6770287B1, “Biocidal cellulosic material” (The Regents of the University of California, priority 2000, dated 2004)
